Active and inactive are the calls of the source.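 The calls were made as follows: active = compound reaching half of full procaspase-3 activation at 10 µM or lower; inactive = the rest.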

The values below come from PubChem BioAssay AID504824 (The Scripps Research Institute Molecular Screening Center, 2011).

Caspase-3 (Homo sapiens), sequence (P42574 whole entry D9A/D28A/D175A): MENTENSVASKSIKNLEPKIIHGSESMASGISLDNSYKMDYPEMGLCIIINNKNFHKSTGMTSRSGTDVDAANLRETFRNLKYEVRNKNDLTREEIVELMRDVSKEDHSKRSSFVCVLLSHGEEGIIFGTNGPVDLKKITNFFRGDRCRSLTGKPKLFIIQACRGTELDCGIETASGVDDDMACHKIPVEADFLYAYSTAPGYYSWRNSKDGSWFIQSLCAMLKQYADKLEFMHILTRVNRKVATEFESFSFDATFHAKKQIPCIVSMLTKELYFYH

The assay addresses Caspase-3 (Homo sapiens) (UniProt P42574). Put plainly: procaspase-3 activation potency of dual candidates, late-stage follow-up, counter-screen for dual procaspase-3/7 activator project, biochemical, absorbance, PC-3 D3A mutant, powder samples (AID 504824). To be noted: recombinant PC-3 D3A, Ac-DEVD-pNA absorbance 405 nm.
For the compound `COC(=O)C1=NN(c2ccc(Cl)cc2)C2C(=O)N(c3ccccc3OC)C(=O)C12` (stereo not given), the EC50 was > 85.3 µM (inactive).
In the case of `COc1ccccc1N1C(=O)C2C(C(=O)c3ccccc3)=NN(c3ccccc3)C2C1=O` (stereo not given) it was > 85.3 µM (inactive); in that of `Cc1[nH]nc2c1C(c1c[nH]c3ccccc13)C(C#N)=C(N)O2` (stereo not given), 3.62 µM.
In the case of `O=C(Nc1ccc(Cc2ccncc2)cc1)C1CCC(N2C(=O)C3C4C=CC(C5CC45)C3C2=O)CC1` (stereo not given) it was > 85.3 µM (inactive).
In the case of `O=C(C1=NN(c2ccccc2)C2C(=O)N(c3ccccc3)C(=O)C12)c1ccccc1` (stereo not given) it was > 85.3 µM (inactive).
